What follows are compounds tested against T1, human Edg-1 receptor (Homo sapiens, UniProt P21453) (assay: GTP-γ-S assay using human Edg-1 receptors (SPA, CHO Flp-In cell membrane preparation)). Conditions: test compound at 10 μM; high control 10 μM S1P regarded as 100% activation; background-corrected; triplicate.
T1 construct: FLAG (N); expressed in transfected cells; membrane preparation
Assay type: biochemical
In short: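 Membranes from CHO Flp-In cells stably overexpressing N-terminally FLAG-tagged human Edg-1 were used in a scintillation-proximity GTP-γ-S binding assay to measure receptor activation by compounds.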

T1 sequence (P21453 whole entry): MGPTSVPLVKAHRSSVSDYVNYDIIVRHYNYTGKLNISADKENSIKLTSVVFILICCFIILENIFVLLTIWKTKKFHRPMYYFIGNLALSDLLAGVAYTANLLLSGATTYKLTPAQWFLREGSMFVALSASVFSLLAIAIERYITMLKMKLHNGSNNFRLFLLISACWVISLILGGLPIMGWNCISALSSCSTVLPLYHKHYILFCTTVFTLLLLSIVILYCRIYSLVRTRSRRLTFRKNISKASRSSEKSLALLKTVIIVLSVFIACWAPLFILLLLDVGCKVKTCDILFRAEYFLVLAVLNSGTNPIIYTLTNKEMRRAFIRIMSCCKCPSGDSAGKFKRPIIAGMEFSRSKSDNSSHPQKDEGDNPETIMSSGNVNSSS

| % Activation (Edg-1 receptor activation in percent of the activation by 10 μM S1P) [%] | SMILES |
| --- | --- |
| 96 | CCCOc1nc(Oc2ccc(=O)n(C)n2)nc2oc(-c3cc(F)ccc3Cl)nc12 [Example 114, 6-[2-(2-chloro-5-fluoro-phenyl)-7-propoxy-oxazolo[5,4-d]pyrimidin-5-yloxy]-2-methyl-2H-oyridazin-3-one] |

Same assay, conditions: test compound at 10 μM; high control 10 μM S1P regarded as 100% activation; background-corrected; triplicate; read-out: % Activation (Edg-1 receptor activation in percent of the activation by 10 μM S1P)

| activation at 10 µM [%] | SMILES |
| --- | --- |
| 88 | CCCOc1nc(Oc2ccccc2)nc2oc(-c3ccc(Cl)c(Cl)c3)nc12 [Example 105, 2-(3,4-dichloro-phenyl)-5-phenoxy-7-propoxy-oxazolo[5,4-d]pyrimidine] |
| 117 | Clc1ccc(-c2nc3c(OCC4CC4)nc(Oc4cccnc4)nc3o2)cc1Cl [Example 106, 7-cyclopropylmethoxy-2-(3,4-dichloro-phenyl)-5-(pyridin-3-yloxy)-oxazolo[5,4-d]pyrimidine] |
| 129 | CCCOc1nc(Oc2ccccc2F)nc2oc(-c3cccnc3)nc12 [Example 107, 5-(2-fluoro-phenoxy)-7-propoxy-2-pyridin-3-yl-oxazolo[5,4-d]pyrimidine] |
| 98 | Fc1cncc(Oc2nc(OCC3CC3)c3nc(-c4ccc(Cl)c(Cl)c4)oc3n2)c1 [Example 108, 7-cyclopropylmethoxy-2-(3,4-dichloro-phenyl)-5-(5-fluoro-pyridin-3-yloxy)-oxazolo[5,4-d]pyrimidine] |
| 80 | Clc1ccc(-c2nc3c(OCC4CC4)nc(Oc4ccccc4)nc3o2)cc1Cl [Example 110, 7-cyclopropylmethoxy-2-(3,4-dichloro-phenyl)-5-phenoxy-oxazolo[5,4-d]pyrimidine] |
| 88 | CCCOc1nc(Oc2ccc(C)cc2F)nc2oc(-c3cccc(C)c3)nc12 [Example 111, 5-(2-fluoro-4-methyl-phenoxy)-7-propoxy-2-(3-methyl-phenyl)-oxazolo[5,4-d]pyrimidine] |
| 46 | CCCOc1nc(Oc2ccc(SC(F)(F)F)cc2)nc2oc(-c3cccc(C)c3)nc12 [Example 112, 7-propoxy-2-(3-methyl-phenyl)-5-(4-trifluoromethylsulfanyl-phenoxy)-oxazolo[5,4-d]pyrimidine] |
| 52 | CCCOc1nc(NC2CCC(C)CC2)nc2oc(-c3cc(F)ccc3Cl)nc12 (centres unmarked) [Example 113, [2-(2-chloro-5-fluoro-phenyl)-7-propoxy-oxazolo[5,4-d]pyrimidin-5-yl]-(4-methyl-cyclohexyl)-amine] |
| 96 | CCCOc1nc(Oc2cc(Cl)ccc2C)nc2oc(-c3cccc(C)c3)nc12 [Example 115, 5-(5-chloro-2-methyl-phenoxy)-7-propoxy-2-(3-methyl-phenyl)-oxazolo[5,4-d]pyrimidine] |
| 70 | CCCOc1nc(Oc2cccc(SC(F)(F)F)c2)nc2oc(-c3cccc(C)c3)nc12 [Example 116, 7-propoxy-2-(3-methyl-phenyl)-5-(3-trifluoromethylsulfanyl-phenoxy)-oxazolo[5,4-d]pyrimidine] |
| 63 | CCCOc1nc(OC2CCOCC2)nc2oc(-c3cc(F)ccc3Cl)nc12 [Example 117, 2-(2-chloro-5-fluoro-phenyl)-7-propoxy-5-(tetrahydro-pyran-4-yloxy)-oxazolo[5,4-d]pyrimidine] |
| 98 | CCCOc1nc(Oc2cccc(OC)c2)nc2oc(-c3cccc(C)c3)nc12 [Example 118, 5-(3-methoxy-phenoxy)-7-propoxy-2-(3-methyl-phenyl)-oxazolo[5,4-d]pyrimidine] |

Second part, the compound before the results:

| SMILES | activation at 10 µM [%] |
| --- | --- |
| CCCOc1nc(Oc2ccc(C)c(Cl)c2)nc2oc(-c3cccc(C)c3)nc12 [Example 89, 5-(3-chloro-4-methyl-phenoxy)-7-propoxy-2-(3-methyl-phenyl)-oxazolo[5,4-d]pyrimidine] | 96 |
| CCCOc1nc(Oc2ccc(C)cc2Cl)nc2oc(-c3cccc(C)c3)nc12 [Example 90, 5-(2-chloro-4-methyl-phenoxy)-7-propoxy-2-(3-methyl-phenyl)-oxazolo[5,4-d]pyrimidine] | 67 |
| CCCOc1nc(Oc2c(C)cccc2Cl)nc2oc(-c3cccc(C)c3)nc12 [Example 91, 5-(2-chloro-6-methyl-phenoxy)-7-propoxy-2-(3-methyl-phenyl)-oxazolo[5,4-d]pyrimidine] | 105 |
| CCCOc1nc(Oc2ccc(C#N)cc2OC)nc2oc(-c3cccc(C)c3)nc12 [Example 92, 3-methoxy-4-(7-propoxy-2-(3-methyl-phenyl)-oxazolo[5,4-d]pyrimidin-5-yloxy)-benzonitrile] | 51 |
| CCCOc1nc(Oc2cccc(OCC)c2)nc2oc(-c3cccc(C)c3)nc12 [Example 93, 5-(3-ethoxy-phenoxy)-7-propoxy-2-(3-methyl-phenyl)-oxazolo[5,4-d]pyrimidine] | 60 |
| CCCOc1nc(Oc2cc(F)ccc2F)nc2oc(-c3cccc(C)c3)nc12 [Example 94, 5-(2,5-difluoro-phenoxy)-7-propoxy-2-(3-methyl-phenyl)-oxazolo[5,4-d]pyrimidine] | 122 |
| CCCOc1nc(Oc2ccc(F)cc2F)nc2oc(-c3cccc(C)c3)nc12 [Example 95, 5-(2,4-difluoro-phenoxy)-7-propoxy-2-(3-methyl-phenyl)-oxazolo[5,4-d]pyrimidine] | 107 |
| CCCOc1nc(Oc2ccccc2C(C)(C)C)nc2oc(-c3cccc(C)c3)nc12 [Example 96, 5-(2-tert-butyl-phenoxy)-7-propoxy-2-(3-methyl-phenyl)-oxazolo[5,4-d]pyrimidine] | 67 |
| CCCOc1nc(Oc2c(F)cccc2F)nc2oc(-c3cccc(C)c3)nc12 [Example 97, 5-(2,6-difluoro-phenoxy)-7-propoxy-2-(3-methyl-phenyl)-oxazolo[5,4-d]pyrimidine] | 124 |
| CCCOc1nc(Oc2cccc(C)c2)nc2oc(-c3cccc(C)c3)nc12 [Example 98, 7-propoxy-2-(3-methyl-phenyl)-5-(3-methyl-phenyl)oxy-oxazolo[5,4-d]pyrimidine] | 107 |
| CCCOc1nc(Oc2ccc(F)cc2OC)nc2oc(-c3cccc(C)c3)nc12 [Example 99, 5-(4-fluoro-2-methoxy-phenoxy)-7-propoxy-2-(3-methyl-phenyl)-oxazolo[5,4-d]pyrimidine] | 91 |
| CCCOc1nc(Oc2cc(F)cc(F)c2Cl)nc2oc(-c3cccc(C)c3)nc12 [Example 100, 5-(2-chloro-3,5-difluoro-phenoxy)-7-propoxy-2-(3-methyl-phenyl)-oxazolo[5,4-d]pyrimidine] | 108 |
| CCCOc1nc(Oc2cc(F)ccc2Cl)nc2oc(-c3cccc(C)c3)nc12 [Example 101, 5-(2-chloro-5-fluoro-phenoxy)-7-propoxy-2-(3-methyl-phenyl)-oxazolo[5,4-d]pyrimidine] | 104 |
| Cc1cc(Oc2nc(OCC3CC3)c3nc(-c4cccc(F)c4)oc3n2)n(C)n1 [Example 102, 7-cyclopropylmethoxy-5-(2,5-dimethyl-2H-pyrazol-3-yloxy)-2-(3-fluoro-phenyl)-oxazolo[5,4-d]pyrimidine] | 130 |
| CCCOc1nc(Oc2ccccc2F)nc2oc(-c3cccc(C)c3)nc12 [Example 103, 5-(2-fluoro-phenoxy)-7-propoxy-2-(3-methyl-phenyl)-oxazolo[5,4-d]pyrimidine] | 109 |
| Fc1ccc(Cl)c(-c2nc3c(OCC4CC4)nc(Oc4ccccc4F)nc3o2)c1 [Example 104, 2-(2-chloro-5-fluoro-phenyl)-7-cyclopropylmethoxy-5-(2-fluoro-phenoxy)-oxazolo[5,4-d]pyrimidine] | 117 |

Reference: patent US8785439B2, “2,5,7-substituted oxazolopyrimidine derivatives” (Sanofi, priority 2010, dated 2014)
